Our source for the Avg infected area and Observed antifungal activity values is patent publication US20250280827A1, “An antifungal composition comprising natamycin and at least one insecticide” (priority 2021, published 2025).

Like-named read-outs stand apart in the source and are kept apart here.

The test system of one assay is Sclerotinia sclerotiorum. Nature of the assay: Antifungal effect against Sclerotinia sclerotiorum infection on wounded skin of broad bean pods (rot area, Colby synergy). Format: in vivo. The settings on record: 23 h after inoculation, Table 4. An excerpt:
(§1) The Colby equation (Colby, 1967. Weeds 15:20-22) calculates the expected antifungal activity (E in %) of a combination comprising more than one active ingredients:
(§2) wherein X and Y are the observed antifungal activities (in %) of the individual active ingredients x and y, respectively. If the observed antifungal activity (O in %) of the combination exceeds the expected antifungal activity (E in %) of the combination and the synergy factor O/E is thus >1.0, the combined application of the active ingredients leads to a synergistic antifungal effect.
• 1) Control (without natamycin and lambda-cyhalothrin) • 2) Natamycin at a level of 15 ppm • 3) Lambda-cyhalothrin (in the product KARATE ZEON® of Syngenta) at a levels of 0.15 ppm, 0.6 ppm, 3 ppm and 15 ppm • 4) Natamycin at a level of 15 ppm combined with lambda-cyhalothrin at levels of 0.15 ppm, 0.6 ppm, 3 ppm or 15 ppm.
Used pathogen: Sclerotinia sclerotiorum.
(§3) Application: The broad bean pods were washed under tap water, and were subsequently surface sterilized by placing them in a 0.1% sodium hypochlorite solution for 5 minutes. The pods were then rinsed with tap water and dried. Transparent plastic containers were prepared by placing a piece of absorbing paper in the container and adding 25 ml of water, one container per treatment was used. The pods were cut in two, and two halve pods were incubated per box. The skin of broad bean pods was damaged with a needle, ø 2 mm and to a depth of about 3 mm into the fruit, with—depending on the size of the pod—2 to 4 wounds per half pod. In total, 6 wounds were incubated per treatment, of which 1 was used as a control. A volume of 20 microliter of a natamycin/insecticide composition, as presented herein above, was applied by pipette to each wound. The treatments were then left to air-dry. Once dried, a mycelium plug of Sclerotinia sclerotiorum was placed upside down on each wound, so that the mycelium was in direct contact with the wound. Per treatment 5 wounds were inoculated with the fungus, while the 6th and last wound was used as negative non-inoculated control. After inoculation, the containers were directly closed with a transparent plastic lid.
All pods were kept at room temperature (20° C.). Wounds of the pods were checked after 30 h of incubation.
Replicates: All treatments for the broad bean pod experiment were performed on two individual pod halves resulting in 5 wounds per treatment, while a sixth wound served as control.
The experiments were performed as described in Example 1.
The experiments were performed as described in Example 1. Assessment of the infection area was 23 h after inoculation. Experiment was performed in 5-fold.
The experiments were performed as described in Example 1. Thiamethoxam belongs to IRAC Group 4. Assessment of the infection area was 31 hours after inoculation. Experiment was performed in 5-fold.
The experiments were performed as described in Example 1. The product SPECTRE® of company (Adama) containing the active ingredient chlorfenapyr belonging to IRAC Group 13 was tested. Assessment of the infection area was 23 hours after inoculation. Experiment was performed in 5-fold.

Another assay deals with Fusarium graminerum. Format: cell-based. The settings on record: 6 days after inoculation, Table 5.
Source text: as §1, §2
(§4) Agar medium was prepared by mixing in a 100 ml Duran bottle 3.9 g of potato dextrose agar (PDA) from Carl-Roth (Carl-Roth GmbH+Co. KG, Karlsruhe, Germany) with 100 ml deionized water and autoclaving the Duran bottle at 120° C. for 15 minutes. After autoclaving, the solution was cooled by putting it in a 48° C. oven for about two hours. Afterward the semi-liquid PDA solution was carefully mixed with natamycin and/or insecticide dosages as specified in Table 5 showing the interaction results on petri dishes. The medium in the Duran bottle was divided over 5 petri dishes (90×15 mm), 20 ml per petri dish by using 25 ml serological pipets (ROTILABO®; Carl-Roth). Each natamycin and/or insecticide treatment was performed in fivefold.
(§5) Fungal spore suspensions were prepared by drenching a fully grown petri dish with sterile water. The fungus was scraped off and filtered through a Miracloth (pore size: 22-25 μm) (Merck KGaA, Darmstadt, Germany; catalogue number: 475855). The number of spores were counted with a hemocytometer and fungal suspension was adjusted to 10^6 spores per ml. Afterward, 5 μl of prepared spore suspension was pipetted on the center of the agar plate. The plates were incubated at 25° C. Measurement of the fungal growth was done using callipers at different time points. Assessment of the infection area was 6 days after inoculation.
(§6) The insecticide levels and the period after which the assessments were made are presented as specified for the different insecticides are presented in Table 5 below. Synergistic calculation was done using the Colby equation. Experiment was performed in 5-fold.
The experiments were performed as described in Example 3. The product KARATE ZEON® of company Syngenta containing the active ingredient lambda-cyhalothrin belonging to IRAC Group 3 was tested. Assessment of the infection area was 6 days after inoculation. Experiment was performed in 5-fold.

The subject of a further assay is Fusarium culmorum. Nature of the assay: Antifungal effect against Fusarium culmorum on PDA petri dishes (fungal growth area, Colby synergy). As to conditions: 6 days after inoculation, Table 6. It is filed as cell-based.
Source text: as §1, §2, §4, §5, §6
The experiments were performed as described in Example 3. Assessment of the infection area was 6 days after inoculation. Experiment was performed in 5-fold.
The experiments were performed as described in Example 3. The product KARATE ZEON® of company Syngenta containing the active ingredient lambda-cyhalothrin belonging to IRAC Group 3 was tested. Assessment of the infection area was 3 days after inoculation. Experiment was performed in 5-fold.

A further assay has as its system Botrytis cinerea. Nature of the assay: Antifungal effect against Botrytis cinerea infection on wounded peel of banana fruits (Colby synergy). Format: in vivo. As to conditions: 5 days after inoculation.
Source text: as §2, §3
The infection area was measured 5 days after inoculation.
A few changes were made for the banana experiments: 5 wounds per banana were made, on each wound 40 microliter of treatments was pipetted. The treatments were then left to air-dry. Once dried, 2 microliter of a freshly prepared inoculum was pipetted on four of the wounds. The inoculum consists of […] potato dextrose broth (PDB) medium containing Botrytis cinerea spores at a concentration of 10^6 spores per ml. The fifth wound was used as negative non-inoculated control. Experiment was performed in 4-fold.
Assessment of the infection area was performed 3 days after inoculation. Experiment was performed in 4-fold.
Imidacloprid was formulated as described in Table 2. Assessment of the efficacy was 5 days after inoculation. Experiment was performed in 4-fold.

A further assay concerns Colletotrichum spp. Briefly: Antifungal effect against Colletotrichum infection on wounded skin of pepper fruits (Colby synergy). It is filed as in vivo. As to conditions: 5 days after inoculation, Table 16. An excerpt:
wherein X and Y are the observed antifungal activities (in %) of the individual active ingredients x and y, respectively. If the observed antifungal activity (O in %) of the combination exceeds the expected antifungal activity (E in %) of the combination and the synergy factor O/E is thus >1.0, the combined application of the active ingredients leads to a synergistic antifungal effect. […]
For the treatment, 5 wounds per pepper side were done as previously described. In addition, one wound was done as negative control. Depending on the number of sides of the pepper, 3 to 4 treatments were done per paprika. Per wound 10 μl of treatment was placed on the wound. The treatments were let to dry in a down flow cabinet for about 30 minutes. After drying 5 μl spore suspension at a concentration of 10^7 spores per ml were placed on the wounds. The fungus was isolated from Colletotrichum-infected plant material and identified using techniques known to the person skilled in the art. The pepper were placed as described previously in a transparent container, with the difference that the containers were then placed in a transparent plastic zipper bag. The bags with peppers were placed at room temperature and in the dark for two days. After that the size of the lesions were measured. Assessment of the infection area was 4 days after inoculation. Experiment was performed in 5-fold.
The fungus was isolated from Colletotrichum-infected plant material and identified using techniques known to the person skilled in the art. Assessment of the infection area was performed 5 days after inoculation. Experiment was performed in 5-fold.
The active ingredient imidacloprid was formulated as described in Table 2. Imidacloprid belonging to IRAC Group 4. The fungus was isolated from Colletotrichum-infected plant material and identified using techniques known to the person skilled in the art. Assessment of the infection area was performed 5 days after inoculation. Experiment was performed in 5-fold.
The fungus was isolated from Colletotrichum-infected plant material and identified using techniques known to the person skilled in the art. Assessment of the efficacy was 5 days after inoculation. Experiment was performed in 5-fold.
The fungus was isolated from Colletotrichum-infected plant material and identified using techniques known to the person skilled in the art. Assessment of the infection area was performed 6 days after inoculation. Experiment was performed in 5-fold.
The fungus was isolated from Colletotrichum-infected plant material and identified using techniques known to the person skilled in the art. Assessment of the infection area was performed 4 days after inoculation. Experiment was performed in 5-fold.

Where [1] appears, read: natamycin-insecticide 0-0.15 ppm.
[2] abbreviates: natamycin-insecticide 0-0.6 ppm.
The mark [3] stands for this setting: natamycin-insecticide 0-0.05 ppm.
The mark [4] stands for this setting: natamycin-insecticide 0-0.1 ppm.
[5] abbreviates: natamycin-insecticide 0-0.2 ppm.
[6] abbreviates: natamycin-insecticide 0-0.5 ppm.
[7] abbreviates: natamycin-insecticide 0:0.004 ppm, Table 18B.
Setting [8] is: natamycin-insecticide 0:0.01 ppm, Table 18A.
The mark [9] stands for this setting: natamycin-insecticide 0:0.04 ppm, Table 18A.
The mark [10] stands for this setting: natamycin-insecticide 0:1 ppm, Table 18A.
[11] abbreviates: natamycin-insecticide 0:0.01 ppm.
Where [12] appears, read: natamycin-insecticide 0:0.04 ppm.

For the compound `CCOC(=O)/C=C(C)/C=C/CC(C)CCCC(C)C` (stereo not shown) [hydroprene], the Avg infected area with Sclerotinia sclerotiorum (setting [1]) is recorded as 99.3 mm2; with Sclerotinia sclerotiorum (setting [2]), 103.1 mm2; with Sclerotinia sclerotiorum (natamycin-insecticide 0-3 ppm), 74.5 mm2; in the assay with Sclerotinia sclerotiorum (natamycin-insecticide 0-15 ppm), 89 mm2; with Fusarium graminerum (setting [3]), 1124 mm2; with Fusarium graminerum (setting [4]), 1142.1 mm2. Besides, the Avg infected area in the assay on Fusarium graminerum (setting [5]) was determined as 970.5 mm2; in the assay on Fusarium graminerum (setting [6]), 1055.1 mm2; with Fusarium culmorum (setting [3]), 934.7 mm2; in the assay on Fusarium culmorum (setting [4]), 1010.5 mm2; in the assay with Fusarium culmorum (setting [5]), 1014.3 mm2; in the assay with Fusarium culmorum (setting [6]) it was 1060.2 mm2. Further, the Observed antifungal activity in the assay on Sclerotinia sclerotiorum (setting [1]) was 36.6%; with Sclerotinia sclerotiorum (setting [2]), 34.2%; in the assay with Sclerotinia sclerotiorum (natamycin-insecticide 0-3 ppm), 52.5%; in the assay on Sclerotinia sclerotiorum (natamycin-insecticide 0-15 ppm) it was 43.2%; with Fusarium graminerum (setting [3]) it was 1.0%; in the assay with Fusarium graminerum (setting [4]) it was −0.6%. The Observed antifungal activity is reported as 14.5% with Fusarium graminerum (setting [5]); 7.1% in the assay on Fusarium graminerum (setting [6]); 6.4% in the assay with Fusarium culmorum (setting [3]); −1.2% with Fusarium culmorum (setting [4]); −1.6% in the assay on Fusarium culmorum (setting [5]); −6.2% in the assay with Fusarium culmorum (setting [6]).

`O=[N+]([O-])NC1=NCCN1Cc1ccc(Cl)nc1` [imidacloprid, N-[1-[(6-chloropyridin-3-yl)methyl]-4,5-dihydroimidazol-2-yl]nitramide]: the Avg infected area turned out to be 16.6 mm2 with Botrytis cinerea (setting [7]); 35.6 mm2 in the assay on Botrytis cinerea (setting [8]); 53.2 mm2 in the assay on Botrytis cinerea (setting [9]); 32.4 mm2 with Botrytis cinerea (setting [10]); 18.5 mm2 in the assay on Colletotrichum spp. (setting [11]); 23.3 mm2 with Colletotrichum spp. (setting [12]). In addition, the Avg infected area with Colletotrichum spp. (natamycin-insecticide 0:1 ppm) is reported as 27.9 mm2. Also, the Observed antifungal activity was 43.3% with Botrytis cinerea (setting [7]); 27.6% with Botrytis cinerea (setting [8]); −8.3% with Botrytis cinerea (setting [9]); 34.1% in the assay on Botrytis cinerea (setting [10]); 56.3% in the assay on Colletotrichum spp. (setting [11]); 44.7% with Colletotrichum spp. (setting [12]).
